Source: ChEMBL document CHEMBL1124853, “Synthesis and antiallergy activity of N-[2-(dimethylamino)ethyl]-4-aryl-1-piperazinecarboxamide derivatives” (1990)

Tests used:
Assay type in all cases: functional
[1] = system: Rattus norvegicus; assay: Oral antiallergic activity in rat passive foot anaphylaxis (PFA) assay as percent change in volume of foot edema at a dose 31.6 mg/kg compared to -50% of aminophylline at 100 mg/kg
[2] = system: Rattus norvegicus; assay: Oral antiallergic activity in rat passive foot anaphylaxis (PFA) assay as percent change in volume of foot edema at a dose 31.6 mg/kg compared to -78% of aminophylline at 100 mg/kg
[3] = system: Rattus norvegicus; assay: Oral antiallergic activity in rat passive foot anaphylaxis (PFA) assay as percent change in volume of foot edema at a dose 31.6 mg/kg compared to -63% of aminophylline at 100 mg/kg
[4] = system: Rattus norvegicus; assay: Oral antiallergic activity in rat passive foot anaphylaxis (PFA) assay as percent change in volume of foot edema at a dose 31.6 mg/kg compared to -65% of aminophylline at 100 mg/kg
[5] = system: Rattus norvegicus; assay: Oral antiallergic activity in rat passive foot anaphylaxis (PFA) assay as percent change in volume of foot edema at a dose 31.6 mg/kg compared to -74% of aminophylline at 100 mg/kg
[6] = system: Rattus norvegicus; assay: Oral antiallergic activity in rat passive foot anaphylaxis (PFA) assay as percent change in volume of foot edema at a dose 31.6 mg/kg compared to -66% of aminophylline at 100 mg/kg
[7] = system: Rattus norvegicus; assay: Oral antiallergic activity in rat passive foot anaphylaxis (PFA) assay as percent change in volume of foot edema at a dose 31.6 mg/kg compared to -76% of aminophylline at 100 mg/kg
[8] = system: Rattus norvegicus; assay: Oral antiallergic activity in rat passive foot anaphylaxis (PFA) assay as percent change in volume of foot edema at a dose 31.6 mg/kg compared to -61% of aminophylline at 100 mg/kg
[9] = system: Rattus norvegicus; assay: Oral antiallergic activity in rat passive foot anaphylaxis (PFA) assay as percent change in volume of foot edema at a dose 31.6 mg/kg compared to -71% of aminophylline at 100 mg/kg
[10] = system: Rattus norvegicus; assay: Oral antiallergic activity in rat passive foot anaphylaxis (PFA) assay as percent change in volume of foot edema at a dose 31.6 mg/kg compared to -69% of aminophylline at 100 mg/kg
[11] = system: Rattus norvegicus; assay: Oral antiallergic activity in rat passive foot anaphylaxis (PFA) assay as percent change in volume of foot edema at a dose 31.6 mg/kg compared to -81% of aminophylline at 100 mg/kg
[12] = system: Rattus norvegicus; assay: Oral antiallergic activity in rat passive foot anaphylaxis (PFA) assay as percent change in volume of foot edema at a dose 31.6 mg/kg compared to -68% of aminophylline at 100 mg/kg
[13] = system: Rattus norvegicus; assay: Oral antiallergic activity in rat passive foot anaphylaxis (PFA) assay as percent change in volume of foot edema at a dose 31.6 mg/kg compared to -79% of aminophylline at 100 mg/kg
[14] = system: Rattus norvegicus; assay: Oral antiallergic activity in rat passive foot anaphylaxis (PFA) assay as percent change in volume of foot edema at a dose 31.6 mg/kg compared to -80% of aminophylline at 100 mg/kg
[15] = system: Rattus norvegicus; assay: Oral antiallergic activity in rat passive foot anaphylaxis (PFA) assay as percent change in volume of foot edema at a dose 31.6 mg/kg compared to -73% of aminophylline at 100 mg/kg
[16] = system: Rattus norvegicus; assay: Oral antiallergic activity in rat passive foot anaphylaxis (PFA) assay as percent change in volume of foot edema at a dose 31.6 mg/kg compared to -77% of aminophylline at 100 mg/kg
[17] = system: Rattus norvegicus; assay: Oral antiallergic activity in rat passive foot anaphylaxis (PFA) assay as percent change in volume of foot edema at a dose 31.6 mg/kg compared to -58% of aminophylline at 100 mg/kg
[18] = system: Rattus norvegicus; assay: Oral antiallergic activity in rat passive foot anaphylaxis (PFA) assay as percent change in volume of foot edema at a dose 31.6 mg/kg compared to -60% of aminophylline at 100 mg/kg

Question: Which Change [1] does the source give for `CN(CCNC(=O)N1CCN(c2ccccc2)CC1)Cc1ccccc1` here?
Answer: Its Change is -35%.

Question: With `CCOC(=O)c1ccc(N2CCN(C(=O)NCCN(C)C)CC2)cc1` as the compound, how does the Change [2] read?
Answer: The Change was -5%.

Question: For `CN(CCNC(=O)N1CCN(c2ccccc2)CC1)c1ccccc1`, which Change [3] is on record?
Answer: The Change was -41%.

Question: How did the Change [1] turn out when `CN(C)CCNC(=O)N1CCN(c2ccc(Cl)c(Cl)c2)CC1` was run?
Answer: Its Change is -17%.

Question: With `CN(C)CCN(C)C(=O)N1CCN(c2ccccc2)CC1` as the compound, how does the Change [4] read?
Answer: The Change was -38%.

Question: How did the Change [5] turn out when `O=C(NCCN1CCOCC1)N1CCN(c2ccccc2)CC1` was run?
Answer: Its Change is 10%.

Question: Which Change [6] does the source give for `CN(C)CCNC(=O)N1CCN(C(c2ccccc2)c2ccccc2)CC1` here?
Answer: The Change was -30%.

Question: Which Change [7] does the source give for `O=C(NCCN1CCCCCC1)N1CCN(c2ccccc2)CC1` here?
Answer: The Change was -47%.

Question: How did the Change [8] turn out when `CN(C)CCNC(=O)N1CCN(c2ccc(Br)cc2)CC1` was run?
Answer: Its Change is -31%.

Question: How did the Change [9] turn out when `CN(C)CCNC(=O)N1CCN(C(=O)c2ccccc2)CC1` was run?
Answer: Its Change is -4%.

Question: For `O=C(NCCCN1CCOCC1)N1CCN(c2ccccc2)CC1`, which Change [10] is on record?
Answer: Its Change is -28%.

Question: How did the Change [11] turn out when `CCN1CCCC(NC(=O)N2CCN(c3ccccc3)CC2)C1` (stereo not given) was run?
Answer: The Change was -58%.

Question: How did the Change [12] turn out when `O=C(NCCN1CCCC1)N1CCN(c2ccccc2)CC1` was run?
Answer: The Change was -45%.

Question: With `CN(C)CCNC(=O)N(C)CCN(C)c1ccccc1` as the compound, how does the Change [13] read?
Answer: Its Change is -23%.

Question: For `O=C(N1CCN(c2ccccc2)CC1)N1CCN(c2ccccc2)CC1`, which Change [10] is on record?
Answer: Its Change is -10%.

Question: How did the Change [3] turn out when `COc1ccc(N2CCN(C(=O)NCCN(C)C)CC2)cc1OC` was run?
Answer: Its Change is -16%.

Question: `CN(C)CCNC(=O)N1CCN(c2ccc(C#N)cc2)CC1` was tested. Which Change [14] did it give?
Answer: The Change was -31%.

Question: For `CN1CCN(C(=O)N2CCN(c3ccccc3)CC2)CC1`, which Change [12] is on record?
Answer: The Change was -7%.

Question: `CN(C)CCNC(=O)N1CCN(Cc2ccccc2)CC1` was tested. Which Change [15] did it give?
Answer: Its Change is -10%.

Question: Which Change [5] does the source give for `CC(=O)Nc1ccc(N2CCN(C(=O)NCCN(C)C)CC2)cc1` here?
Answer: The Change was 5%.

Question: For `CN(C)CCNC(=O)N1CCN(c2ccc(N(C)C)cc2)CC1`, which Change [16] is on record?
Answer: Its Change is -29%.

Question: With `CN(C)CCNC(=O)N1CCN(c2ccc([N+](=O)[O-])cc2)CC1` as the compound, how does the Change [17] read?
Answer: Its Change is -26%.

Question: For `CCN(CC)CCNC(=O)N1CCN(c2ccccc2)CC1`, which Change [18] is on record?
Answer: Its Change is -47%.

Question: Which Change [8] does the source give for `CN(C)CCNC(=O)N1CCN(c2cccc(C(F)(F)F)c2)CC1` here?
Answer: The Change was -18%.

Question: `CN(C)CCNC(=O)N1CCN(c2ccc(N)cc2)CC1` was tested. Which Change [15] did it give?
Answer: The Change was -22%.
